Results: ChEMBL document CHEMBL1909046, “DrugMatrix in vitro pharmacology data”

Assays:
[1] = target: Mitogen-activated protein kinase 3 (Homo sapiens, UniProt P27361); experiment: DRUGMATRIX: Protein Serine/Threonine Kinase, ERK1 enzyme inhibition (substrate: Myelin Basic Protein); design: species or system Escherichia coli; conditions: Not Active = under 50% inhibition at 10 µM
[2] = DRUGMATRIX: Sigma2 radioligand binding (ligand: [3H] Ifenprodil); type: cell membranes, Rattus norvegicus, Wistar, Brain, Membrane; conditions: Not Active = under 50% inhibition at 10 µM
[3] = target: Beta-1 adrenergic receptor (Homo sapiens, UniProt P08588); experiment: DRUGMATRIX: Adrenergic beta1 radioligand binding (ligand: [125I] Cyanopindolol); type: cell membranes, CHO-K1, Membrane; conditions: cho-k1; Not Active = under 50% inhibition at 10 µM
[4] = target: Kappa-type opioid receptor (Homo sapiens, UniProt P41145); experiment: DRUGMATRIX: Opiate kappa (OP2, KOP) radioligand binding (ligand: [3H] Diprenorphine); type: cell membranes, HEK293, Membrane; conditions: hek293; Not Active = under 50% inhibition at 10 µM
[5] = target: Matrix metalloproteinase-9 (Homo sapiens, UniProt P14780); type: cell-based;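 note: inhibition of isolated MMP-9 enzyme activity toward a synthetic peptide substrate, from the DrugMatrix protease screening panel; in other assays of this panel Not Active means under 50% inhibition at 10 µM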
[6] = DRUGMATRIX: Nicotinic Acetylcholine radioligand binding (ligand: [125I] Epibatidine); type: cell membranes, Membrane; conditions: imr-32, Not Active = under 50% inhibition at 10 µM

Kappa-type opioid receptor, sequence (P41145 whole entry): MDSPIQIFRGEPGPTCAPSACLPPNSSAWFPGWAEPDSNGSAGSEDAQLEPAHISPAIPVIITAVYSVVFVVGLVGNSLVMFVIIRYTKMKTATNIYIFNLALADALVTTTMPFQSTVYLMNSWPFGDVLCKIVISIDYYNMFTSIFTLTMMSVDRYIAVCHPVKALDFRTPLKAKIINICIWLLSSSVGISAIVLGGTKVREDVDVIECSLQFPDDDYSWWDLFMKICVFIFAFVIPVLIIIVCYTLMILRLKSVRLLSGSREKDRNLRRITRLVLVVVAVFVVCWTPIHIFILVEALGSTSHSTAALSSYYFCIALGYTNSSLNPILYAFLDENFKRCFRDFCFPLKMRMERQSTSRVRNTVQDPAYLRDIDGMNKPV
Mitogen-activated protein kinase 3, sequence (P27361 whole entry): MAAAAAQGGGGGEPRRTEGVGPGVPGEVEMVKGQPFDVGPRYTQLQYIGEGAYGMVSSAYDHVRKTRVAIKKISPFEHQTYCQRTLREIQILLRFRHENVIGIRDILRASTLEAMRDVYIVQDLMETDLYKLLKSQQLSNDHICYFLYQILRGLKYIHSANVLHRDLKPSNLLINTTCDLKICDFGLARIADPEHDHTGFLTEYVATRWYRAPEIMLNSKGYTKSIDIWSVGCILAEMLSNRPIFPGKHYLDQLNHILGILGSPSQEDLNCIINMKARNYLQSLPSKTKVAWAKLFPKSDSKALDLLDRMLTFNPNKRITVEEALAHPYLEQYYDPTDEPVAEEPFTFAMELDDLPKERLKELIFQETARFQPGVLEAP
Beta-1 adrenergic receptor, sequence (P08588 whole entry): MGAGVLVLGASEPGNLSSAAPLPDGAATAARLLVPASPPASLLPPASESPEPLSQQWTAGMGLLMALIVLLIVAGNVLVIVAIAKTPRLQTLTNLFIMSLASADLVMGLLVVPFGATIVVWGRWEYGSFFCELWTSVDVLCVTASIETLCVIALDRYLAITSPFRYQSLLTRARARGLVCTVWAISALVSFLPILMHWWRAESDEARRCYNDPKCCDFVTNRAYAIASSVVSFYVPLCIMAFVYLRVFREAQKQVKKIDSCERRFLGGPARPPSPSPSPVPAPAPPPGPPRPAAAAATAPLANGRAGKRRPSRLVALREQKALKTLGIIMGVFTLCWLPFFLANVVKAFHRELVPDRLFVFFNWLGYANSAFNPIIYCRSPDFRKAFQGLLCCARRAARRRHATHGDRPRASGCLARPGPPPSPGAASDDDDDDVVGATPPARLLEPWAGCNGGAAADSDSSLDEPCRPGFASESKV
Matrix metalloproteinase-9, sequence (P14780 whole entry): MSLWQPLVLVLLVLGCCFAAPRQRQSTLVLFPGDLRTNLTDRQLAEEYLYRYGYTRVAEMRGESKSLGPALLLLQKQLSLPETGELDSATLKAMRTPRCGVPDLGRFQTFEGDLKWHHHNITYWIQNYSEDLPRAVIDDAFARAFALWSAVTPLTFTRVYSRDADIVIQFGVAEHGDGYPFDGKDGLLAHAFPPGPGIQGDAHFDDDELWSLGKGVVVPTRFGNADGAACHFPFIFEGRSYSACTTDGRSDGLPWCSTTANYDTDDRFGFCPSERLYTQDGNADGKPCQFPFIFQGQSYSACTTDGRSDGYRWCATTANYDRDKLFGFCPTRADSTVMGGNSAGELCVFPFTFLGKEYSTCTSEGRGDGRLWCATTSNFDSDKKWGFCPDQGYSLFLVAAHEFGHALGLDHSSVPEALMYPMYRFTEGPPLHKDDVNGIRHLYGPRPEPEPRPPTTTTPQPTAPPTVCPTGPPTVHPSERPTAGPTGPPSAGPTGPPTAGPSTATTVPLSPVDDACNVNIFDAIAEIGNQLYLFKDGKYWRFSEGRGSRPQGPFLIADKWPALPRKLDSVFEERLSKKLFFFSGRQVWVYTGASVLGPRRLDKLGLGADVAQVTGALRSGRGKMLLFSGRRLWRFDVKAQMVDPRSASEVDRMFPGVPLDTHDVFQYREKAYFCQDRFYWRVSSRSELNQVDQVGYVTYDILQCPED

Compound: c1ccc2c(c1)Nc1ccccc1S2 [PHENOTHIAZINE]
- IC50 [1]: Not Active
- IC50 [2]: Not Active
- Ki [2]: Not Active
- IC50 [3]: Not Active
- IC50 [4]: Not Active
- IC50 [5]: Not Active
- IC50 [6]: Not Active
- Ki [6]: Not Active

Compound: OC[C@H]1OC2C3[C@@H](CO)OC(O[C@H]4[C@H](O)[C@@H](O)[C@@H](O[C@H]5[C@H](O)[C@@H](O)[C@@H](O[C@H]6[C@H](O)[C@@H](O)[C@@H](O[C@H]7[C@H](O)[C@@H](O)[C@@H](O[C@H]8[C@H](O)[C@@H](O)[C@@H](O[C@H]9[C@H](O)[C@@H](O)C(OC1[C@H](O)[C@H]2O)O[C@@H]9CO)O[C@@H]8CO)O[C@@H]7CO)O[C@@H]6CO)O[C@@H]5CO)O[C@@H]4CO)[C@H](O)[C@H]3O
- IC50 [1]: Not Active
- IC50 [2]: Not Active
- Ki [2]: Not Active
- IC50 [3]: Not Active
- IC50 [4]: Not Active
- IC50 [5]: Not Active
- IC50 [6]: Not Active
- Ki [6]: Not Active

Compound: CC(C)Cc1ccc([C@H](C)C(=O)O)cc1 [DEXIBUPROFEN]
- IC50 [1]: Not Active
- IC50 [2]: Not Active
- Ki [2]: Not Active
- IC50 [3]: Not Active
- IC50 [4]: Not Active
- IC50 [5]: Not Active
- IC50 [6]: Not Active
- Ki [6]: Not Active

Compound: CC(N)Cc1c[nH]c2ccc(OCc3cccs3)cc12 (stereo unspecified) [BW-723C86]
- IC50 [1]: Not Active
- IC50 [2]: Not Active
- Ki [2]: Not Active
- IC50 [3]: Not Active
- IC50 [4]: Not Active
- IC50 [5]: Not Active
- IC50 [6]: Not Active
- Ki [6]: Not Active

Compound: CC(=O)[C@]1(O)Cc2c(O)c3c(c(O)c2[C@@H](O[C@H]2C[C@H](N)[C@H](O)[C@H](C)O2)C1)C(=O)c1ccccc1C3=O [IDARUBICIN]
- IC50 [1]: Not Active
- IC50 [2]: Not Active
- Ki [2]: Not Active
- IC50 [3]: Not Active
- IC50 [4]: Not Active
- IC50 [5]: Not Active
- IC50 [6]: Not Active
- Ki [6]: Not Active

Compound: NC(=O)NC(=O)Cc1ccccc1 [PHENACEMIDE]
- IC50 [1]: Not Active
- IC50 [2]: Not Active
- Ki [2]: Not Active
- IC50 [3]: Not Active
- IC50 [4]: Not Active
- IC50 [5]: Not Active
- IC50 [6]: Not Active
- Ki [6]: Not Active

Compound: Nc1ccc(C(=O)O)c(O)c1 [AMINOSALICYLIC ACID]
- IC50 [1]: Not Active
- IC50 [2]: Not Active
- Ki [2]: Not Active
- IC50 [3]: Not Active
- IC50 [4]: Not Active
- IC50 [5]: Not Active
- IC50 [6]: Not Active
- Ki [6]: Not Active

Compound: Nc1nc(N)c2nc(CNc3ccc(C(=O)N[C@@H](CCC(=O)O)C(=O)O)cc3)cnc2n1 [AMINOPTERIN]
- IC50 [1]: Not Active
- IC50 [2]: Not Active
- Ki [2]: Not Active
- IC50 [3]: Not Active
- IC50 [4]: Not Active
- IC50 [5]: Not Active
- IC50 [6]: Not Active
- Ki [6]: Not Active

Compound: c1ccc(Cn2ccnc2)cc1
- IC50 [1]: Not Active
- IC50 [2]: Not Active
- Ki [2]: Not Active
- IC50 [3]: Not Active
- IC50 [4]: Not Active
- IC50 [5]: Not Active
- IC50 [6]: Not Active
- Ki [6]: Not Active

Compound: CC(C)(C#N)c1cc(Cn2cncn2)cc(C(C)(C)C#N)c1 [ANASTROZOLE]
- IC50 [1]: Not Active
- IC50 [2]: Not Active
- Ki [2]: Not Active
- IC50 [3]: Not Active
- IC50 [4]: Not Active
- IC50 [5]: Not Active
- IC50 [6]: Not Active
- Ki [6]: Not Active

Compound: COc1cc(/C=C/C(=O)O)ccc1O [FERULATE]
- IC50 [1]: Not Active
- IC50 [2]: Not Active
- Ki [2]: Not Active
- IC50 [3]: Not Active
- IC50 [4]: Not Active
- IC50 [5]: Not Active
- IC50 [6]: Not Active
- Ki [6]: Not Active

Compound: C[N+](C)(C)CCOC(N)=O.[Cl-] [CARBACHOL]
- IC50 [1]: Not Active
- IC50 [2]: Not Active
- Ki [2]: Not Active
- IC50 [3]: Not Active
- IC50 [4]: Not Active
- IC50 [5]: Not Active
- IC50 ([6]; read-out: IC50): 1000 nM
- Ki ([6]; read-out: Ki): 334 nM

Compound: CC1(COc2ccc(CC3SC(=O)NC3=O)cc2)CCCCC1 (stereo unspecified) [CIGLITAZONE]
- IC50 [1]: Not Active
- IC50 [2]: Not Active
- Ki [2]: Not Active
- IC50 [3]: Not Active
- IC50 [4]: Not Active
- IC50 [5]: Not Active
- IC50 [6]: Not Active
- Ki [6]: Not Active

Compound: Oc1ncnc2[nH]ncc12 [ALLOPURINOL]
- IC50 [1]: Not Active
- IC50 [2]: Not Active
- Ki [2]: Not Active
- IC50 [3]: Not Active
- IC50 [4]: Not Active
- IC50 [5]: Not Active
- IC50 [6]: Not Active
- Ki [6]: Not Active

Compound: Cc1cc(C(C)(C)C)c(O)c(C)c1CC1=NCCN1 [OXYMETAZOLINE]
- IC50 [1]: Not Active
- IC50 [2]: Not Active
- Ki [2]: Not Active
- IC50 [3]: Not Active
- IC50 [4]: Not Active
- IC50 [5]: Not Active
- IC50 [6]: Not Active
- Ki [6]: Not Active

Compound: CC(C)Cn1cnc2c(N)nc3ccccc3c21 [IMIQUIMOD]
- IC50 [1]: Not Active
- IC50 [2]: Not Active
- Ki [2]: Not Active
- IC50 [3]: Not Active
- IC50 [4]: Not Active
- IC50 [5]: Not Active
- IC50 [6]: Not Active
- Ki [6]: Not Active

Compound: NS(=O)(=O)c1cc(C(=O)O)c(NCc2ccco2)cc1Cl [FUROSEMIDE]
- IC50 [1]: Not Active
- IC50 [2]: Not Active
- Ki [2]: Not Active
- IC50 [3]: Not Active
- IC50 [4]: Not Active
- IC50 [5]: Not Active
- IC50 [6]: Not Active
- Ki [6]: Not Active
